One assay deals with T1, EGFR T790M L858R (Homo sapiens, UniProt P00533, L858R/T790M).
T1 construct: purchased Life Technologies PV4879
The assay can be described thus: EGFR T790M L858R biochemical assay (Caliper mobility shift). As to conditions: 5 μM ATP; apparent Ki (Morrison fit) converted by Cheng-Prusoff, Km of ATP 1.3 μM. The gist of the method:
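Reactions run 30 minutes at room temperature (22 °C), stopped with 80 mM EDTA. Phosphorylated product and substrate separated electrophoretically and quantified by Caliper mobility shift.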

The target of assay [1] is T2, phosphor-EGFR in H1975(L585R/T790M) mutant EGFR expressing cells (Homo sapiens, UniProt P00533, L858R/T790M).
T2 construct: host or cells: NCI-H1975
The assay can be described thus: H1975 pEGFR MSD cellular assay. The conditions noted are these: NCI-H1975 cells, serum starved, 1 hour compound incubation, pEGFR Tyr1068 MSD; read-out: HI975 pEGFR EC50. Format: cell-based. The gist of the method:
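NCI-H1975 cells, 30,000/well, serum-starved overnight, then treated 1 hour at 37° C with serially diluted compounds in serum-free medium (0.5% DMSO). Lysates captured on anti-phospho-EGFR plates overnight at 4° C, detected with SULFO-TAG anti-total EGFR by electrochemiluminescence. Inhibition vs untreated controls; EC50 from 4-parameter logistic fit.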

Assay [2] concerns H1975 (EGFR T790M/L858R) cell proliferation. The experiment in a line: H1975 proliferation assay (Cell Titer-Glo). Format: cell-based. As to conditions: Homo sapiens, NCI-H1975, 72 h, NCI-H1975 cells, 72 hour incubation, read-out: H1975 antiproliferative EC50. On the procedure:
H1975 Proliferation Assays
All cell culture reagents were purchased from Invitrogen/Gibco. Cells are cultured at 37° C. at 5% CO2 and split as recommended by ATCC.

For a further assay, the target named is T3, EGFR del746-750 T790M (Homo sapiens, UniProt P00533, DEL746-750/T790M).
T3 construct: purchased Carna Biosciences 08-528
The experiment in a line: EGFR del746-750 T790M biochemical assay (Caliper mobility shift). As to conditions: 5 μM ATP; apparent Ki (Morrison fit) converted by Cheng-Prusoff, Km of ATP 2.1 μM; read-out: EGFR(T790M/d746-750) Ki. Put shortly: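 Kinase reactions ran 30 min at room temperature (22 °C), then were stopped with 80 mM EDTA. Phosphorylated product and substrate were separated electrophoretically and quantified by Caliper mobility shift.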

Each structure is given as a SMILES string.

T1 sequence (P00533 25-1210 T790M/L858R): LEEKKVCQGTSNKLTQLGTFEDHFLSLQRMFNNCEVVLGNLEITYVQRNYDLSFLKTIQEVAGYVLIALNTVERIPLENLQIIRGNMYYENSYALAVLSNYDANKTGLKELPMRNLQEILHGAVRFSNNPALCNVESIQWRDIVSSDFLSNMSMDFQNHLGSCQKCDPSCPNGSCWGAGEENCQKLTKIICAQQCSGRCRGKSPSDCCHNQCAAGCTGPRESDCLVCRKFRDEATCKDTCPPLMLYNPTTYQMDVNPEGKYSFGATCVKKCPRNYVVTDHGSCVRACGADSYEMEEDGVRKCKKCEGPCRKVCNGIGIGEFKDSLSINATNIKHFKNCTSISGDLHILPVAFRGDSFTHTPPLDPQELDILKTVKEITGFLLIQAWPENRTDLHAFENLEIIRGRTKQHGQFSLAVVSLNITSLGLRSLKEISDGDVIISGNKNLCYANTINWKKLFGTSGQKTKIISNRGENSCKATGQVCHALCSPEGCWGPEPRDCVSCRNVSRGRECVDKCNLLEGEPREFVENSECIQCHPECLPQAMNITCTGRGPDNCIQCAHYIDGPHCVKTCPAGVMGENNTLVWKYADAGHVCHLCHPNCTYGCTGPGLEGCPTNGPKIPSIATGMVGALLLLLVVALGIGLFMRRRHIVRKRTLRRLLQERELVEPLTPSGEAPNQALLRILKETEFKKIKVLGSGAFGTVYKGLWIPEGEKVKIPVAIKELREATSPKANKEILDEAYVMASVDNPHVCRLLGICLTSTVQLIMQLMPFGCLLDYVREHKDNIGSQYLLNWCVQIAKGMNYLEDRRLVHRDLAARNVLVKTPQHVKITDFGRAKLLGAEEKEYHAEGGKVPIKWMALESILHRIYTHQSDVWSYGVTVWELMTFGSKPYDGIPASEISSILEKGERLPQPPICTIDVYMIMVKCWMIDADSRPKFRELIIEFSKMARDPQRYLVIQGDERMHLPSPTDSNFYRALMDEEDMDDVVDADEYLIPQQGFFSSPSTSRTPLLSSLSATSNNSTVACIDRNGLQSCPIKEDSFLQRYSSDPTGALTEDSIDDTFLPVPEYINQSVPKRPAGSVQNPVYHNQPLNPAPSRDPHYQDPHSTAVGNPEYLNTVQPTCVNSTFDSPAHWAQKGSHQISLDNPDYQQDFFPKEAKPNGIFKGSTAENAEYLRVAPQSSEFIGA
T2 sequence (P00533 25-1210 T790M/L858R): as above
T3 sequence (P00533 with tags, fused parts or gaps DEL746-750/T790M limits assumed): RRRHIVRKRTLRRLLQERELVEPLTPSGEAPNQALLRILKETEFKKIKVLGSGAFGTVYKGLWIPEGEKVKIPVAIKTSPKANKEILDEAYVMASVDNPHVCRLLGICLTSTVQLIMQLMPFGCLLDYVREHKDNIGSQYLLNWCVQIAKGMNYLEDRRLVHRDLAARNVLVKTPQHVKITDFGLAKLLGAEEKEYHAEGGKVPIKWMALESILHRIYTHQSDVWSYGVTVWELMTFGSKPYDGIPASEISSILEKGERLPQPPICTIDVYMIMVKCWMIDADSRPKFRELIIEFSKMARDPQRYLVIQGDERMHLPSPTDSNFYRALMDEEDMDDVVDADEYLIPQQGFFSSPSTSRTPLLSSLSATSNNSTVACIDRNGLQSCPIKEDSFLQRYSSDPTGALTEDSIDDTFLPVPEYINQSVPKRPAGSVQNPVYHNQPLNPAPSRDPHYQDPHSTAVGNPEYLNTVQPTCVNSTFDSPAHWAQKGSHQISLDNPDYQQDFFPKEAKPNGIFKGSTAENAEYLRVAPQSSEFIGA

`CCC(C)n1nc(N2CC3(COC3)C2)c2cnc(Nc3ccnc(OCC(C)(C)S(C)(=O)=O)n3)cc21` (racemic) [Example 97, [1-(sec-Butyl)-3-(2-oxa-6-azaspiro[3.3]hept-6-yl)-1H-pyrazolo[4,3-c]pyridin-6-yl]-[2-(2-methanesulfonyl-2-methylpropoxy)pyrimidin-4-yl]amine]: the figures for the Ki at EGFR T790M L858R and on EGFR del746-750 T790M were 3.2 nM and 5.2 nM, respectively. For the same molecule, the EC50 (usually the concentration that produces a half-maximal response) in assay [1] worked out at 233 nM; in assay [2], 1130 nM.
The like results for `CCC(C)n1nc(N2CCNC2=O)c2cnc(Nc3ccnc(OCC(C)(C)S(C)(=O)=O)n3)cc21` (racemic) [Example 99, 1-{1-sec-Butyl-6-[2-(2-methanesulfonyl-2-methylpropoxy)pyrimidin-4-ylamino]-1H-pyrazolo[4,3-c]pyridin-3-yl}imidazolidin-2-one] were, in that order, 3.2 nM, 5.6 nM, 617 nM and 1170 nM.
Take `CCC(C)n1nc(N2CCNC2=O)c2cnc(Nc3ccnc(NCC(C)(C)S(C)(=O)=O)n3)cc21` (racemic) [Example 101, 1-{1-sec-Butyl-6-[2-(2-methanesulfonyl-2-methylpropylamino)pyrimidin-4-ylamino]-1H-pyrazolo[4,3-c]pyridin-3-yl}imidazolidin-2-one]: the Ki is 2.3 nM at EGFR T790M L858R and 2.4 nM at EGFR del746-750 T790M. Besides, the figures for the EC50 in assay [1] and in assay [2] were 568 nM and 1830 nM, respectively.
As for `CCC(C)n1nc(N2CCNC2=O)c2cnc(Nc3ccnc(N4CCC(S(C)(=O)=O)CC4)n3)cc21` (racemic) [Example 102, 1-{1-sec-Butyl-6-[2-(4-methanesulfonylpiperidin-1-yl)pyrimidin-4-ylamino]-1H-pyrazolo[4,3-c]pyridin-3-yl}imidazolidin-2-one], the Ki on EGFR T790M L858R was found to be 2.2 nM; at EGFR del746-750 T790M, 12.4 nM. For the same molecule, the EC50 in assay [1] is 710 nM; in assay [2], 1150 nM.
The matching figures for `CO[C@H]1CCN(c2nccc(Nc3cc4c(cn3)c(N3CC5(COC5)C3)nn4C(C)C)n2)C[C@H]1F` (racemic) [Example 103, [2-((cis)-(±)-3-Fluoro-4-methoxypiperidin-1-yl)pyrimidin-4-yl]-[1-isopropyl-3-(2-oxa-6-azaspiro[3.3]hept-6-yl)-1H-pyrazolo[4,3-c]pyridin-6-yl]amine]: 1.1 nM, 3.9 nM, 23.1 nM and 248 nM.
The like results for `CC(C)n1nc(N2CC(O)(C(F)(F)F)C2)c2cnc(Nc3ccnc(N4CC[C@H](O)[C@H](F)C4)n3)cc21` (racemic) [Example 129, (±)-cis-3-Fluoro-1-(4-(3-(3-hydroxy-3-(trifluoromethyl)azetidin-1-yl)-1-isopropyl-1H-pyrazolo[4,3-c]pyridin-6-ylamino)pyrimidin-2-yl)piperidin-4-ol] were, in that order, 2.7 nM, 6.3 nM, 349 nM and 2720 nM.
`CC(C)n1nc(N2CC(F)(CO)C2)c2cnc(Nc3ccnc(N4CC[C@H](O)[C@H](F)C4)n3)cc21` (racemic) [Example 130, (±)-cis-3-Fluoro-1-(4-(3-(3-fluoro-3-(hydroxymethyl)azetidin-1-yl)-1-isopropyl-1H-pyrazolo[4,3-c]pyridin-6-ylamino)pyrimidin-2-yl)piperidin-4-ol]: the Ki on EGFR T790M L858R is 1.8 nM; on EGFR del746-750 T790M, 3.3 nM. In addition, the results for the EC50 in assay [1] and in assay [2] were 261 nM and 1430 nM, respectively.
Turning to `CC(C)n1nc(N2CCCC2=O)c2cnc(Nc3ccnc(N4CC[C@H](O)[C@H](F)C4)n3)cc21` (racemic) [Example 133, (±)-1-(6-(2-(cis-3-Fluoro-4-hydroxypiperidin-1-yl)pyrimidin-4-ylamino)-1-isopropyl-1H-pyrazolo[4,3-c]pyridin-3-yl)pyrrolidin-2-one], the values for the Ki on EGFR T790M L858R and at EGFR del746-750 T790M were 1.7 nM and 4.3 nM, respectively. Further, the EC50 in assay [1] is 150 nM; in assay [2], 332 nM.

Source of the values: US9951064B2, “Azaindazole compounds as inhibitors of T790M containing EGFR mutants” (Genentech, Inc., priority 2013, dated 2018).
